Assay [1] deals with T1, Muscarinic acetylcholine receptor (Rattus norvegicus) (UniProt P08482+P08483+P08485+P08911+P10980). The assay is described as follows: Relative binding efficacy for muscarinic receptors using QNB and CMD. The class given is protein assay.
Assay [2] addresses T2, Muscarinic acetylcholine receptor M2 (Rattus norvegicus, UniProt P10980).
T2 sequence (P10980 whole entry): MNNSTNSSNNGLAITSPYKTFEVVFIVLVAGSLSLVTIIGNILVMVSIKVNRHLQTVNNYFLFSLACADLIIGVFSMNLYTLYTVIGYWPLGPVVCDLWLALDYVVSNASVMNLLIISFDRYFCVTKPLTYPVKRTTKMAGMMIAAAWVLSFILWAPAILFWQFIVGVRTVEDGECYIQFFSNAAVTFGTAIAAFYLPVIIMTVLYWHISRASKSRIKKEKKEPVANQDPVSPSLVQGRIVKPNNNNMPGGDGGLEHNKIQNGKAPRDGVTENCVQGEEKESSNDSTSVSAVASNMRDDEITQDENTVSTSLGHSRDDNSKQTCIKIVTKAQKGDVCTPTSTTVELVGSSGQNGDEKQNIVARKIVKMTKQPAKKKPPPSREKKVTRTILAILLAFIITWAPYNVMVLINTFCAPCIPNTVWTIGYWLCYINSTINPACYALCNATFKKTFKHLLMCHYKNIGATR
Kind of assay: Displacement of [3H]QNB from Muscarinic acetylcholine receptor M2 from rat heart homogenates. The class given is tissue-based. (In a radioligand displacement assay an active substance lowers the binding of a labelled ligand.)

The target in assay [3] is Muscarinic acetylcholine receptor. The assay is described as follows: Inhibition of 0.03 nM [3H]quinuclidinyl benzylate binding to rat neocortex muscarinic receptor. The class given is protein assay.
For assay [4] the target is unchanged. The assay is described as follows: Inhibition of 0.1 nM [3H]cis-methyldioxolane binding to rat neocortex muscarinic receptor. The format is protein assay.
Assay [5] has as its target T3, Muscarinic acetylcholine receptor M1 (Homo sapiens, UniProt P11229).
T3 sequence (P11229 whole entry): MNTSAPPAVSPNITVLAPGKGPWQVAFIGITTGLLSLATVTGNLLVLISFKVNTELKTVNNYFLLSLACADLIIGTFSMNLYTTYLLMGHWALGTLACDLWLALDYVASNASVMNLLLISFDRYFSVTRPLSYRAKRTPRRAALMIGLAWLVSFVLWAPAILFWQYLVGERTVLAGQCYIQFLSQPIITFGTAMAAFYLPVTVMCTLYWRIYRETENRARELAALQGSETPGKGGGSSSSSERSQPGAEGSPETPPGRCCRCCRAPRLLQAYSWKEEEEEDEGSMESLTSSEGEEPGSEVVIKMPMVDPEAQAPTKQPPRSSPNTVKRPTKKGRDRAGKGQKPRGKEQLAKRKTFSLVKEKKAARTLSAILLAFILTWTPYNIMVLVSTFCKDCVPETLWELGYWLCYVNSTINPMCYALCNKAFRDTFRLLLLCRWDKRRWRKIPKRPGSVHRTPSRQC
The assay is described as follows: Displacement of [3H]QNB in genetically transformed mouse cell line (m1C2) transfected with Muscarinic acetylcholine receptor M1.

Assay [6] in a line: Selectivity ratio of M2/m1 receptors.
The target in assay [7] is T1, Muscarinic acetylcholine receptor (Rattus norvegicus). The assay is described as follows: Percent inhibition towards muscarinic receptor in rat neocortex using 0.1 nM [3H]cis-methyldioxolane receptor binding assay (RCMD).
The target is the same in assay [8]. Kind of assay: Percent inhibition towards muscarinic receptor in rat neocortex using 0.03 nM [3H]quinuclidinyl benzylate receptor binding assay (RQMB) was determined.

As usually defined, the IC50 is the concentration needed to halve the response being measured. Read a high IC50 as weaker potency. Consider `CC(=O)CCC#CCN(C)C`, for which the Efficacy ratio in assay [1] is 965. Moreover, the 50% inhibitory concentration (IC50) was determined as 18.9 µM in assay [2], 65.6 µM in assay [3], 0.068 µM in assay [4] and 51.8 µM in assay [5]. For the same compound, the Selectivity ratio in assay [6] is 0.4.
Usually inhibition stands for the percentage by which the read-out fell short of the control. Lower therefore signals a response near the control. In the case of `CO/N=C/C(C)CC#CCN(C)C` (centres undefined), the inhibition in assay [7] amounted to 6%; in assay [8] it was 4%.
As to `CC(=O)C(C)CC#CCN1CCCC1` (centres undefined), in assay [1], the Efficacy ratio was determined as 97. Further, the IC50 in assay [2] was 6.5 µM; in assay [3] it was 5.696 µM; in assay [4], 0.059 µM; in assay [5] it was 2.8 µM. For the same compound, the Selectivity ratio in assay [6] turned out to be 2.3.
Consider `CC(=O)N(C)CC#CCN(C)C`, for which the Efficacy ratio in assay [1] is 4070. For the same compound, the IC50 was 4.46 µM in assay [2], 87.876 µM in assay [3], 0.0216 µM in assay [4] and 87.9 µM in assay [5]. In assay [6], the Selectivity ratio was 0.2.
Consider `CO/N=C(\C)C(C)CC#CCN(C)C` (centres undefined), for which the values for the inhibition in assay [7] and in assay [8] were 5% and 3%, respectively.
With `CC(/C=N/O)CC#CCN(C)C` (centres undefined), the Efficacy ratio in assay [1] amounted to 441. Besides, the concentration for half-maximal inhibition (IC50) in assay [2] amounted to 34.2 µM; in assay [3], 13.23 µM; in assay [4] it was 0.03 µM; in assay [5] it was 25.9 µM. In addition, the Selectivity ratio in assay [6] is 1.3.
Consider `CC(=O)N(C)CC#CCN1CCCC1`, for which the Efficacy ratio in assay [1] is 544. In addition, the IC50 was 2.01 µM in assay [2], 2.447 µM in assay [3], 0.0045 µM in assay [4] and 2.45 µM in assay [5]. Moreover, the Selectivity ratio in assay [6] was 0.9.
Take `CO/N=C(\C)CCC#CCN1CCCC1`: the results for the inhibition in assay [7] and in assay [8] were 5% and 17%, respectively.
As to `C/C(=N\O)C(C)CC#CCN1CCCC1` (centres undefined), the inhibition in assay [7] came to 21%; in assay [8], 15%.
Consider `C/C(CCC#CCN(C)C)=N\O`, for which the Efficacy ratio in assay [1] amounted to 265. The values for the IC50 in assay [3] and in assay [4] were 36.769 µM and 0.139 µM, respectively.
Taken in the same sequence, the figures for `CC(=O)CCC#CCN1CCCC1` were 34, 7.28 µM and 0.214 µM.
Take `CO/N=C(\C)C(C)CC#CCN1CCCC1` (centres undefined): the inhibition in assay [7] was found to be 21%; in assay [8], 26%.
Take `CC(=O)C(C)CC#CCN(C)C` (centres undefined): in assay [1], the Efficacy ratio worked out at 549. For the same compound, the concentration for half-maximal inhibition (IC50) turned out to be 55.4 µM in assay [3] and 0.101 µM in assay [4].
For the compound `CC(C=O)CC#CCN(C)C` (centres undefined), the inhibition in assay [7] and in assay [8] was 0% throughout.
For the compound `CC(C=O)CC#CCN1CCCC1` (centres undefined), the inhibition in assay [7] stood at 1%; in assay [8] it was 9%.
Take `C[N+](C)(C)CC#CCOC(=O)Nc1cccc(Cl)c1.[Cl-]`: the Efficacy ratio in assay [1] came out at 84. Moreover, the IC50 in assay [2] was 34.1 µM; in assay [3], 5.388 µM; in assay [4] it was 0.064 µM; in assay [5], 7.24 µM. The Selectivity ratio in assay [6] worked out at 4.7.
In the case of `C/C(CCC#CCN1CCCC1)=N\O`, in assay [1], the Efficacy ratio came to 3. The concentration for half-maximal inhibition (IC50) in assay [3] is 1.254 µM; in assay [4], 0.373 µM.
With `CO/N=C(\C)CCC#CCN(C)C`, the inhibition worked out at 5% in assay [7] and 1% in assay [8].
For the compound `CC(/C=N/O)CC#CCN1CCCC1` (centres undefined), the Efficacy ratio in assay [1] turned out to be 92. For the same compound, the half-inhibitory concentration (IC50) in assay [2] came out at 5.5 µM; in assay [3], 1.928 µM; in assay [4] it was 0.021 µM; in assay [5] it was 0.92 µM. Further, in assay [6], the Selectivity ratio was determined as 4.8.
Consider `C/C(=N\O)C(C)CC#CCN(C)C` (centres undefined), for which the results for the inhibition in assay [7] and in assay [8] were 12% and 9%, respectively.
Turning to `O=C1CCCN1CC#CCN1CCCC1` [OXOTREMORINE], the Efficacy ratio in assay [1] was determined as 308. Also, the half-inhibitory concentration (IC50) in assay [3] worked out at 0.407 µM; in assay [4] it was 0.0015 µM; in assay [5], 0.364 µM. Also, the Selectivity ratio in assay [6] was 2.4.
For `CO/N=C/C(C)CC#CCN1CCCC1` (centres undefined), the inhibition in assay [7] was found to be 27%; in assay [8] it was 15%.

For the origin of these results see ChEMBL document CHEMBL1126443, “Cholinergic agents: aldehyde, ketone, and oxime analogues of the muscarinic agonist UH5” (Bioorg Med Chem Lett, 1992).
